Data: publication PMC5209447, “Aryl-1,3,5-triazine ligands of histamine H4 receptor attenuate inflammatory and nociceptive response to carrageen, zymosan and lipopolysaccharide” (Inflammation Research, 2016)

Molecular target: T1, phosphodiesterase 4B1 (PDE 4B1) (Homo sapiens, UniProt Q07343)
T1 construct: gene PDE4B; PDE 4B1 (BPS Biosciences)
Experiment: PDELight bioluminescent cAMP phosphodiesterase assay, % inhibition at […]
Type: biochemical
Settings: read-out: PDE 4B1 inhibition (%) ± SEM

T1 sequence (Q07343 whole entry): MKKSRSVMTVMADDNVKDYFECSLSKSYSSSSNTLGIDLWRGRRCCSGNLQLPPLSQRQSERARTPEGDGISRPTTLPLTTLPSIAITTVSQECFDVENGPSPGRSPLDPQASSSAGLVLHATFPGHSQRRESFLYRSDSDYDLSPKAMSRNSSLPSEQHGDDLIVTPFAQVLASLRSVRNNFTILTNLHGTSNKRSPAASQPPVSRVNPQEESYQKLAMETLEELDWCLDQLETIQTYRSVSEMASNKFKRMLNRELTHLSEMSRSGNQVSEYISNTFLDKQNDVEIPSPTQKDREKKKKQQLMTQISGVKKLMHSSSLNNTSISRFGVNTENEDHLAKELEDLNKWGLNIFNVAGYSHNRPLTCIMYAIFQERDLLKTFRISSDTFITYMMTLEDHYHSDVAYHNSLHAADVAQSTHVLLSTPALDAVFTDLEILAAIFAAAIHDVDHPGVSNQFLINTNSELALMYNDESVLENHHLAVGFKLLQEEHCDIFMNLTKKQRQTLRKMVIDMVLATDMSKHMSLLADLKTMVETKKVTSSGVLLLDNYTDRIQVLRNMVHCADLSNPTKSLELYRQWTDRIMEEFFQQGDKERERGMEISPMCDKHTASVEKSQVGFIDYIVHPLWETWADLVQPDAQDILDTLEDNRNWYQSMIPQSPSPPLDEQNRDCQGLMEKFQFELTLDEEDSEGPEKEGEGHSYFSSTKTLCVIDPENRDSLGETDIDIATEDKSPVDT

inhibition at 100 µM [%] | SMILES | inhibition at 50 µM [%]
31 ± 0.5 | Nc1nc(N)nc(-c2cc(Cl)ccc2Cl)n1 [Irsogladine] | –
– | COc1ccc(C2CNC(=O)C2)cc1OC1CCCC1 (centres unmarked) [Rolipram] | 95
